The subject of series [1] is Tumor 41 (pancreatic tumor). Briefly: Direct pancreatic cancer derived xenograft, Tumor 41. Particulars: Gemcitabine 100 mg/kg 2 times/week for 4 weeks, ON-01910.Na 250 mg/kg/day for 4 weeks. In kind it is in vivo, mice. The source says: (§1) Resected pancreatic adenocarcinomas are routinely implanted in nude mice at the Johns Hopkins Medical Institutions as a method to obtain enriched populations of neoplastic cells under an IRB-approved protocol from residual pancreatic cancer tumors. Briefly, tumor specimens from Whipple resection specimens were divided into 2-3 mm^3 pieces in antibiotic-containing RPMI media. Pieces of non-necrotic tissue were selected and immersed in Matrigel. Under anesthesia with isofluorane, tumors were implanted into five-to-six week-old female athymic (nu/nu) mice purchased from Harlan (Harlan Laboratories, Washington, D.C.). […] Tumor size was determined using calipers every four days for the course of the experiment. Relative tumor growth inhibition (TGI) was calculated as TGI=(Ti−T0/Ci−C0), where Ti and Ci represent tumor size in the treated and control group at 28-day, respectively; […] Experiments were terminated on day 28. […] Pancreatic tumors were implanted in mice as detailed above. Mice were treated with gemcitabine alone, ON-01910-Na alone, or a combination thereof as indicated. Tumor size was measured at four day intervals.

The test system of series [2] is Tumor 28 (pancreatic tumor). Briefly: Direct pancreatic cancer derived xenograft, Tumor 28. In kind it is in vivo, mice. Particulars: Gemcitabine 100 mg/kg 2 times/week for 4 weeks, ON-01910.Na 250 mg/kg/day for 4 weeks.
Text: as §1

Series [3] deals with Plk1. The series can be described thus: Plk1 expression analysis by RT-PCR in xenograft tumors harvested on day 28. In kind it is in vivo, mice. Particulars: JH03 tumor, day 28, compared with the other tumors. The source says:
Total RNA was extracted from cell pellets (and tumors) using the RNeasy™ Mini Kit (Qiagen, Valencia, Calif.). cDNA was synthesized using iScript cDNA synthesis kit (Bio-Rad, Hercules, Calif.) following the manufacturer's instructions. Relative quantification of Plk1 and ubiquitin C (UBC, used as housekeeper gene) mRNA was achieved using an iCycler iQ real-time PCR detection system (Bio-Rad) using ABI Taqman probes (Foster City, Calif.). The experiments were repeated twice and samples were run in quadruplicate.
On day 28, animals were euthanized and tumors were removed for Plk1 expression analysis by RT-PCR using standard protocols. Plk1 expression levels were expressed relative to expression in non-drug treated control.
On day 28, tumors were harvested and analyzed for Plk1 expression (FIG. 2C).

For series [4], the system named is Tumor JH03 (pancreatic tumor). Briefly: Direct pancreatic cancer derived xenograft, Tumor JH03. The following applies: Gemcitabine 100 mg/kg 2 times/week for 4 weeks, ON-01910.Na 250 mg/kg/day for 4 weeks. In kind it is in vivo, mice.
Text: as §1

Series [5] relates to Solid tumors including prostate, breast, and lung. The following applies: oral; cited from earlier work.

On to `Nc1ccn(C2OC(CO)C(O)C2(F)F)c(=O)n1` (centres unmarked) [gemcitabine, 4-amino-1-[3,3-difluoro-4-hydroxy-5-(hydroxymethyl)tetrahydrofuran-2-yl]-1H-pyrimidin-2-one], for which the “susceptibility of tumor to treatment (tumor growth)” value in series [1] is listed as “susceptible”; in series [2], “resistant”; in series [4] it was “susceptible”. Moreover, the “Plk1 expression in tumor after exposure” value in series [3] is given as “lowest expression of Plk1”.

For `CCCCCCCCCCCCCCCC(=O)Nc1ccn([C@@H]2O[C@H](CO)[C@@H](O)[C@@H]2C#N)c(=O)n1` [sapacitabine], the maximum tolerated dose result in series [5] is given as “dose 160 mg/m^2/day”.

The record behind these values is US9545418B2, “ON01910.Na enhances chemotherapeutic agent activity in drug-resistant tumors” (THE JOHNS HOPKINS UNIVERSITY, priority 2008, dated 2017).
